# Where “and” joins values, the source holds several entries; their conditions need not be identical. Identical values can stand only once. Like-named read-outs stand apart in the source and are kept apart here.
# Tests used:
# Plasma stability = conditions: for % Absolute: human plasma (hPL); for half-life: human
# Description: Plasma stability. To determine in vitro plasma stability, we calculated in vitro plasma half-life. We incubated test substances (0.6 μL) with 60 μL human plasma (BioIVT) in quadruplicate at 37°C.
# [1] = Plasma protein binding, equilibrium dialysis (RED); type: in vitro ADME, human; conditions: for % Recovery / recovery at 4 h, 10 µM: PBS + Plasma relative to starting concentration of 10 uM
# Description: Plasma protein binding. Binding of CP612 to human plasma proteins was measured by equilibrium dialysis using a Rapid Equilibrium Dialysis (RED) Device (Thermo Fisher Scientific). The device uses plates with wells preloaded with equilibrium dialysis membrane inserts, each of which includes 2 side-by-side chambers separated by a dialysis membrane. […] All compounds were tested in triplicate. […] A total of 200 μL of diluted test compound was then added to the plasma chambers of triplicate wells of a 48-sample RED plate (Thermo Fisher Scientific). In total, 400 μL of 0.1M PBS buffer were added to each buffer chamber. The plate was sealed with adhesive foil and incubated at 37°C with shaking for 4 hours, after which 30 μL were removed from each chamber and diluted with either 30 μL of plasma (for buffer chamber samples) or 30 μL of 0.1M PBS (for plasma chamber samples). Samples were extracted with 3 volumes of acetonitrile, centrifuged at 16,000g at 4°C for 10 minutes, and analyzed by LC-MS to calculate the amount of drug in each chamber. The percentage of free compound was calculated as the concentration in the buffer chamber/concentration in the plasma chamber × 100%. The percentage of protein-bound compound was calculated as 100% – the percentage of free compound.
# Microsomal clearance = conditions: for half-life at 8.5 μM: both, human, microsomes; for % Absolute: human liver microsomes (HLM)
# Description: Microsomal clearance. To determine if CP612 was a likely substrate for first-pass hepatic metabolism, we measured the stability of CP612 in the presence of human liver microsomes (BioIVT) pooled from over 100 male and female individuals. […] Test compounds were diluted to 10 μM in 0.1M PBS, and then 51 μL were dispensed in quadruplicate into wells of a 96-well plate, which was shaken at 600 rpm at 37°C. Reactions were initiated by adding 1.5 μL of microsomes (20 mg/mL) to the wells and 3 minutes later adding 7.5 μL of 8 mM NADPH (1 mM final concentration). Samples incubated without NADPH were used as negative controls.
# PKCε = biological target: T1, PKCε (Homo sapiens, UniProt Q02156); experiment: PKCε activity with increasing ATP and CP612 (ATP competition); type: biochemical; set-up: His; AVI; made in house; host or cells: Sf9 cells; conditions: without CP612; 95% CI 2.23–7.61 μM
# T1 sequence (Q02156 1-737): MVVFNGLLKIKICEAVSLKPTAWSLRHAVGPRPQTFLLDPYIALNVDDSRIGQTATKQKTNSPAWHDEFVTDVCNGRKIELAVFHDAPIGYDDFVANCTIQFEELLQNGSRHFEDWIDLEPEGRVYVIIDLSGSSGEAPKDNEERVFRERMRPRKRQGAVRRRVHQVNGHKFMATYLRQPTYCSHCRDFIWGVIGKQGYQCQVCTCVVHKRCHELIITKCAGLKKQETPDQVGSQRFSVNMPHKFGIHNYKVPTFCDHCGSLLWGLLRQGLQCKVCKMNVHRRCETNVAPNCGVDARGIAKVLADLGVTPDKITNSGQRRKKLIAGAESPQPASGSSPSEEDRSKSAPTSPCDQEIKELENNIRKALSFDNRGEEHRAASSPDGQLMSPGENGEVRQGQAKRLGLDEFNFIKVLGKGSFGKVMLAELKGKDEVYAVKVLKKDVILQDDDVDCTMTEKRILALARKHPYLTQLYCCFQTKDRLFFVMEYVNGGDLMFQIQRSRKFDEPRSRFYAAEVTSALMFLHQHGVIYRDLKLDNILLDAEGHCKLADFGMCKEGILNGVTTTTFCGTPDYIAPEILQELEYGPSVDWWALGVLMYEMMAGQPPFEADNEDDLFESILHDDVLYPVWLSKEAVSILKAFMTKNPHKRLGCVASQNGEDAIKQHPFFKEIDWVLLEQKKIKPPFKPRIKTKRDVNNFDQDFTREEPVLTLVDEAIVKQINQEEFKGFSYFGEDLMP
# Description: Therefore, we assayed PKCε activity with increasing concentrations of ATP and in the presence of increasing concentrations of CP612.
# Kinase assays. CP612 was assayed against His-AVI–tagged human PKCε (1 nM) produced in Sf9 cells, and ROCK1 (Carna Biosciences; 5 nM) using the Lance-FRET kinase assay system (PerkinElmer Revvity). Other human recombinant PKCs (SignalChem Biotech) were assayed in triplicate at the following concentrations: PKCβII 1.6 nM, PKCγ 500 pM, PKCδ 5 nM, PKCθ 500 pM, and PKCζ 500 pM. PKCs were incubated in a 15 μL reaction volume with kinase buffer (20 mM Tris-HCL [pH 7.4], 10 mM MgCl2, 0.25 mM EGTA, 0.1 mg/mL BSA, and 0.15% Triton X-100), 50 nM ULight-labeled CREBtide […] (PerkinElmer, TRF0107, Revvity), and test compound. […] after 60 minutes with 10 μL of 2.5× Stop Solution/Detection Mix containing 20 mM EDTA and 4 nM LANCE Ultra Europium anti–phospho-[…] peptide antibody (PerkinElmer, TRF0200, Revvity). After incubation at 27°C for another 60 minutes, phosphorylation was detected using a FlexStation 3 Microplate Reader (Molecular Devices) in LANCE TR-FRET mode (excitation = 340 nm, emission = 665 nm) and expressed as relative fluorescence units (RFU). The percentage of inhibition was calculated as: (signal without test compound − signal with test compound)/(signal without test compound − signal without ATP) × 100. The Z’ factor for this assay ranged between 0.72 and 0.86.
# [2] = time 0 min, individual replicates
# [3] = time 15 min, individual replicates
# [4] = time 30 min, individual replicates
# [5] = time 60 min, individual replicates
# [6] = (Corrected concentration in PBS / Corrected concentration in Plasma) * 100, individual replicates
# [7] = human, individual replicates, read-out: % Recovery
# [8] = human, mean of replicates, read-out: % Recovery, Mean
compound,measurement,setting,value
"CCN(CC)CCOC(=O)c1ccc(N)cc1 [Procaine, reference compound]",% Absolute,Plasma stability; [2],122.69% and 106.84% and 107.17% and 113.76%
same,% Absolute,Plasma stability; [3],0.17% and 0.32% and 0.18%
same,% Absolute,Plasma stability; [4],0.00%
same,% Absolute,Plasma stability; [5],0.00%
same,% Absolute,"Plasma stability; time 180 min, individual replicates",0.00%
same,Plasma stability Cl,"Plasma stability; human plasma, 37°C",25.29 ± 1.35 µL/min
same,Cl (clearance),"Plasma stability; human plasma, individual replicates",26.280 and 23.303 and 25.557 and 26.005
same,t1/2 (half life),"Plasma stability; human plasma, individual replicates, time axis in min, in min",1.785 and 1.627 and 1.599
same,half-life,"Plasma stability; human plasma, Plasma stability t½ (min), 37°C",1.65 ± 0.09 min
same,half-life,"Plasma stability; plasma, t1/2 (half life), Mean, human plasma, mean of replicates, time axis in min",1.65 min
same,half-life,"Plasma stability; plasma, t1/2 (half life), human plasma, individual replicates, time axis in min",1.58 min
C[C@]12CC[C@H]3[C@@H](CCC4=CC(=O)CC[C@@]43C)[C@@H]1CC[C@@H]2O [Testosterone],% Free,[1]; [6],6.33% and 6.14%
same,% Recovery,[1]; individual replicates,74.81% and 77.04%
same,% Absolute (Sample_PBS),"[1]; PBS compartment, relative to starting concentration of 10 uM, individual replicates",4.21% and 4.46% and 4.45%
same,"fraction unbound at 4 h, 10 μM","[1]; human plasma, individual replicates, read-out: % Bound (converted)",0.0593
same,"recovery at 4 h, 10 µM",[1]; [7],75.2%
same,"recovery at 4 h, 10 µM",[1]; [8],75.7%
same,"fraction unbound at 4 h, 10 μM","[1]; human, plasma, (Corrected concentration in PBS / Corrected concentration in Plasma) * 100, individual replicates, read-out: % Free",0.0593
same,"fraction unbound at 4 h, 10 μM","[1]; human, plasma, human plasma, 37°C, 4 hours, read-out: Plasma protein binding (% bound) (converted)",0.0613
same,"fraction unbound at 4 h, 10 μM","[1]; human, plasma, mean of replicates, read-out: % Bound, Mean (converted)",0.0613
same,"fraction unbound at 4 h, 10 μM","[1]; human, plasma, mean of replicates, read-out: % Free, Mean",0.0613
same,% Bound,[1]; individual replicates,93.67% and 93.86%
same,% Absolute (Sample_Plasma),"[1]; plasma compartment, relative to starting concentration of 10 uM, individual replicates",70.98% and 70.35% and 72.59%
same,t1/2 (half life),"Microsomal clearance; HLM, individual replicates, time axis in min",14.3079 and 11.3615 and 11.8498
same,half-life at 8.5 μM,"Microsomal clearance; Microsomal clearance t½ (min), human liver microsomes, NADPH",12.7 ± 1.37 min
same,half-life at 8.5 μM,"Microsomal clearance; t1/2 (half life), HLM, individual replicates, time axis in min",13.4 min
same,half-life at 8.5 μM,"Microsomal clearance; t1/2 (half life), Mean, HLM, mean of replicates, time axis in min",12.7 min
same,% Absolute,Microsomal clearance; [2],122.56% and 99.88% and 106.38% and 105.61%
same,% Absolute,"Microsomal clearance; time 5 min, individual replicates",82.74% and 96.20% and 86.80% and 92.26%
same,% Absolute,Microsomal clearance; [3],59.56% and 70.78%
same,% Absolute,Microsomal clearance; [4],54.15% and 32.42% and 34.78% and 45.15%
same,% Absolute,"Microsomal clearance; time 60 min, -NADPH, individual replicates",125.64% and 123.20% and 118.26% and 117.65%
same,% Absolute,Microsomal clearance; [5],5.58% and 4.76% and 2.71% and 3.01%
same,Microsomal clearance Cl,"Microsomal clearance; human liver microsomes, NADPH",109.81 ± 11.69 µL/min
"COCCc1ccc(OCC(O)CNC(C)C)cc1 (stereo not shown) [Metoprolol, metoprolol]",% Free,[1]; [6],91.52%
same,% Recovery,[1]; individual replicates,70.00% and 78.51%
same,"recovery at 4 h, 10 µM",[1]; [7],66.7%
same,"recovery at 4 h, 10 µM",[1]; [8],71.8%
same,% Bound,[1]; individual replicates,8.48% and 10.85%
Nc1ncnc2c1ncn2[C@@H]1O[C@H](COP(=O)(O)OP(=O)(O)OP(=O)(O)O)[C@@H](O)[C@H]1O [ATP],EC50,PKCε,4.2 µM

# Source: article PMC12016938, “A small molecule PKCε inhibitor reduces hyperalgesia induced by paclitaxel or opioid withdrawal” (JCI Insight, 2025)
